From patent US10500245B2, “Compositions for preventing and/or treating pathological conditions associated with alpha-glucosidase” (UNIVERSITE DE LA ROCHELLE, priority 2014, dated 2019)
Like-named read-outs stand apart in the source and are kept apart here. Where a SMILES comes first, the peptide text is derived from it. Where no end group is shown, it is not given here.

What was measured:
[1] = biological target: T1, recombinant alpha-glucosidase from S. cerevisiae (maltase) (Saccharomyces cerevisiae, UniProt P53341); assay: biochemical; type: biochemical; conditions: for IC50: Table 2
T1 construct: purchased Sigma G0660-750UN
T1 sequence (P53341 whole entry): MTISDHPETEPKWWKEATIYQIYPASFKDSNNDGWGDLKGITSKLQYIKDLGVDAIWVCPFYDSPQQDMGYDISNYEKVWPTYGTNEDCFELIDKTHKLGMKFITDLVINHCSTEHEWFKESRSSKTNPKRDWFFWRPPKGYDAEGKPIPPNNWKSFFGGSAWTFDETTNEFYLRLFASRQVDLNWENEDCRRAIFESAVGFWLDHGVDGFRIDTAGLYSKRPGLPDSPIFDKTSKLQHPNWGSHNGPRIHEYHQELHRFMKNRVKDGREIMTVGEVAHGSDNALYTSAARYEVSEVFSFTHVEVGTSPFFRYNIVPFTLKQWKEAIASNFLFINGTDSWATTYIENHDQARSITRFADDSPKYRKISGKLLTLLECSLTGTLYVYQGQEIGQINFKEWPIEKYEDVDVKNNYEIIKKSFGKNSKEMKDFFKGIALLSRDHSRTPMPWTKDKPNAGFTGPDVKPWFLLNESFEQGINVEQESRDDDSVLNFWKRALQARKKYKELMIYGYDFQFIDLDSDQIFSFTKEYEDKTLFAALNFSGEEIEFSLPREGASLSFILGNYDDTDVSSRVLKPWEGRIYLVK
Method: 20 μl of α-glucosidase in 0.1M potassium phosphate buffer (pH 6.8) at 1.6 U/ml is mixed with 8 μl of the peptide sample or of the reference inhibitor at different concentrations.
The samples are solubilized beforehand in milliQ water containing 10% DMSO (available from Sigma under reference 472301).
After preincubation at 37° C. for 15 min, 20 μl of the substrate p-NPG at 20 mM in 0.1M potassium phosphate buffer (pH 6.8) is added to the mixture in order to start the reaction.
The reaction medium is incubated for 30 min at 37° C. and then the reaction is stopped by adding 80 μl of a 1M solution of sodium carbonate (Na2CO3).
The quantity of product formed (p-nitrophenyl) is measured by reading the absorbance at 410 nm using the Fluostar Omega spectrophotometer (BMG Labtech, Germany).
(§1) All the inhibition tests are carried out in triplicate.
The enzyme used is recombinant alpha-glucosidase from S. cerevisiae (it is a maltase available from Sigma, under reference G0660-750UN).
The substrate used is 4-nitrophenyl α-D-glucopyranoside (p-NPG) (available from Sigma under reference N1377).

db/db mice = assay: Oral test of tolerance to maltose in vivo in db/db mice (Example 5); conditions: 500 mg/kg, alone or in combination, maltose 2 g/kg
Method: The inhibitory activity of the AP and VAP peptides and the effect of the AP and VAP peptides on the glycaemic response can be measured in an oral test of tolerance to maltose in vivo in db/db mice that have a glucose intolerance of genetic origin. The mice are 4 weeks of age and each mouse is its own control. A dose of maltose (2 g/kg) was used in order to cause a temporary increase in glycaemia. Four (4) oral tests of tolerance to maltose (2 g/kg) were carried out on each mouse with a minimum interval of 48 h. The order was determined so as to cancel a potentially confounding effect of a change in body composition of the mice during the 3 study weeks. […] The maltose and the test products were administered directly by the oral route (gastric gavage), diluted in 0.9% saline solution. […] • Main Criterion: […] […] The secondary criteria for evaluation were: […] The AUC (area under the curve) was estimated by the trapezium method.

DPP-IV from pig kidney = biological target: T2, DPP-IV from pig kidney (Sus scrofa, UniProt P22411); assay: In-vitro determination of the inhibition of DPP-IV by synthetic peptides (Example 14); type: biochemical; conditions: for IC50 / inhibitory activity of DPP-IV (IC50) in mmol/l: Table 13, substrate Gly-L-Pro-p-nitroanilide, pH 8.0, 37° C.; for IC50: read-out: inhibitory activity of DPP-IV (IC50)
T2 construct: The enzyme used is DPP-IV from pig kidney; purchased Sigma D7052; host or cells: pig kidney
T2 sequence (P22411 whole entry): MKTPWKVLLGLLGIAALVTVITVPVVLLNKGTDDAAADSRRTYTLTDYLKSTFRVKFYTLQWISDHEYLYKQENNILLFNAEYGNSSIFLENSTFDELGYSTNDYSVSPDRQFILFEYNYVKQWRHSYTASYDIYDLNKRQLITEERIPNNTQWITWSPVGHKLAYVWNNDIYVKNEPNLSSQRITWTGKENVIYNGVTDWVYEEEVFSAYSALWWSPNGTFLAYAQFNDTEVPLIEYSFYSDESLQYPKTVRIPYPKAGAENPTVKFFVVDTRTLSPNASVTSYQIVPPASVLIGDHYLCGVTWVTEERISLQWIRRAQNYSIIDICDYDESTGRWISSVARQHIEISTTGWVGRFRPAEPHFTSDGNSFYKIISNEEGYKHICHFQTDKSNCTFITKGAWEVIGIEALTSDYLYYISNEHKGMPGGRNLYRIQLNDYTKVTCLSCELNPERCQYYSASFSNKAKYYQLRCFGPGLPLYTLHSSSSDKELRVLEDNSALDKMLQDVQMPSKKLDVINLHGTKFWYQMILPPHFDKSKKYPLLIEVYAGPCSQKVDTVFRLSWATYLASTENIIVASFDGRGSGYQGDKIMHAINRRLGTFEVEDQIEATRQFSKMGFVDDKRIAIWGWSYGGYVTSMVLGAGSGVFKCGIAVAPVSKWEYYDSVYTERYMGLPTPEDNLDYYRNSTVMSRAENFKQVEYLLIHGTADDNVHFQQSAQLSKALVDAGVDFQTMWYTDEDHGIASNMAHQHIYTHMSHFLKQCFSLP
Method: The inhibitory activity of synthetic peptides can be measured in vitro according to the following protocol:
25 μl of the substrate Gly-L-Pro-p-nitroanilide in 0.1 M Tris-HCL buffer (pH 8.0) at 1.6 mM is mixed with 25 μl of the peptide sample or of reference inhibitor at different concentrations. The samples are solubilized beforehand in Tris HCL buffer (pH8.0).
After preincubation at 37° C. for 10 min, 50 μl of the DPP-IV enzyme at a concentration of 0.01 U/ml in 0.1 M Tris-HCL buffer (pH 8.0) is added to the mixture in order to start the reaction. The reaction medium is incubated for 60 min at 37° C. and then the reaction is stopped by adding 100 μl of 1M sodium acetate buffer (pH4).
The quantity of product formed (p-nitroanilide) is measured by reading the absorbance at 385 nm using the Fluostar Omega spectrophotometer (BMG Labtech, Germany).
as §1
The substrate used is Gly-L-Pro-p-nitroanilide hydrochloride (available from Sigma under reference G0513).
The enzyme used is DPP-IV from pig kidney (available from Sigma under reference D7052).
The reference inhibitor is Diprotin A, corresponding to the Ile-Pro-Ile tripeptide (available from Sigma under reference 19759).

[2] = biological target: recombinant alpha-glucosidase from Saccharomyces cerevisiae, which is a maltase (Saccharomyces cerevisiae, UniProt P53341); assay: biochemical; conditions: for Inhibitory activity on α-glucosidase (IC50) in mM: Table 1, enzyme 0.2 U/mL, p-NPG 2.5 mM, pH 6.8, 37° C.
Chain of recombinant alpha-glucosidase from Saccharomyces cerevisiae, which is a maltase (P53341 whole entry): as the sequence (P53341 whole entry) above
Method: The synthetic peptides were supplied by GENOSPHERE Biotechnologies.
The alpha-glucosidase used is the recombinant alpha-glucosidase from Saccharomyces cerevisiae, which is a maltase.
The samples were solubilized beforehand in deionized water containing 10% of DMSO (dimethyl sulphoxide).
After incubation at 37° C. for 20 minutes, 20 μL of the substrate p-NPG (p-nitrophenyl glucopyranoside) at 2.5 mM (prepared in the same buffer as mentioned above) was added to the mixture in order to start the reaction.
The reaction medium was incubated for 30 minutes at 37° C. and then the reaction was stopped by adding 80 μL of a solution of sodium carbonate (Na2CO3) at 0.3M.
The quantity of product formed (p-nitrophenyl (p-NP) of yellow colour) was measured by spectrophotometry (absorbance at 410 nm, VersaMax™, Microplate Reader).
The test was carried out in a 96-well microplate.
All the inhibition tests were carried out in triplicate.
The percentage inhibition was calculated from the following equation: […]
OD sample assay corresponds to the optical density obtained for the mixture “sample+enzyme+substrate”.
OD assay blank corresponds to the optical density obtained for the mixture “sample+buffer”.
OD control assay corresponds to the optical density obtained for the mixture “buffer+enzyme+substrate”.
OD control blank corresponds to the optical density obtained for the buffer.

[3] = read-out: Inhibitory activity on α-glucosidase (IC50) in mg/ml (converted)
[4] = Inhibitory activity on α-glucosidase (IC50) in mg/ml
[5] = Inhibitory activity on α-glucosidase (IC50) in mmol/l, enzyme 1.6 U/ml, p-NPG 20 mM, pH 6.8, 37° C.

CC(C)[C@H](N)C(=O)N[C@@H](C)C(=O)N1CCC[C@H]1C(=O)O [VAP] (H-Val-Ala-Pro-OH; N-terminus and C-terminus assumed)
IC50 [1, 3]: 20 µM
inhibition of α-glucosidase in words ([1]; relative to acarbose, miglitol and voglibose): strongly inhibit
effect on the glycaemia of the mice during the test of tolerance to maltose (db/db mice): lower the glycaemia
IC50 (DPP-IV from pig kidney): 4820 ± 2300 µM
inhibition of DPP-IV in words (DPP-IV from pig kidney; relative to the reference Diprotin A): very weakly
IC50 ([2]; read-out: IC50 on α-glucosidase): 20 ± 0.21 µM
median inhibitory concentration of alpha-glucosidase (maltase), times lower relative to the reference inhibitors ([2]; relative to acarbose and miglitol): approximately 600 times

CC(C)[C@H](N)C(=O)N[C@@H](Cc1ccc(O)cc1)C(=O)O [VY] (H-Val-Tyr-OH; N-terminus and C-terminus assumed)
IC50 [1, 3]: 2700 µM
inhibitory activity of DPP-IV (IC50) in mmol/l (DPP-IV from pig kidney): No inhibition
inhibition of alpha-glucosidase in words ([2]; relative to the AP and VAP peptides): weak inhibitors

AKK: synthetic peptide of sequence AKK
Inhibitory activity on α-glucosidase (IC50) in mM [2]: No inhibition

AVIPIPT
inhibitory activity of DPP-IV (IC50) in mmol/l (DPP-IV from pig kidney): No inhibition

AVPYQR [AVPYQR]
IC50 [1, 4]: 3190 µM
IC50 (DPP-IV from pig kidney): 5700 ± 80 µM

SAPLRVY [SAPLRVY]
IC50 [1, 4]: 1760 µM
IC50 [1, 5]: 1760 ± 180 µM
IC50 (DPP-IV from pig kidney): 1060 ± 31 µM

VAPFPEV [VAPFPEV]
IC50 [1, 4]: 2680 µM
IC50 (DPP-IV from pig kidney): 1184 ± 8 µM

VGVAPG [VGVAPG]
IC50 [1, 4]: 4580 µM
IC50 [1, 5]: 4590 ± 60 µM
IC50 (DPP-IV from pig kidney): 10700 ± 769 µM

VIY: peptide sequence VIY of Table 1
Inhibitory activity on α-glucosidase (IC50) in mM [2]: No inhibition
